Results published in patent publication US20260257998A1, “ERR MODULATORS” (University of Health Sciences and Pharmacy in St. Louis, priority 2023, published 2026).

Key:
ERRγ = target: T1, ERRγ (Homo sapiens, UniProt P62508); assay: ERRE luciferase reporter assay in HEK293 cells transfected with pcDNA3.1 ERRγ; format: cell-based; design: key to EC50 (ERRγ): ***<1 μM; **1-5 μM; *>5 μM; i.a. (inactive); details: 24 hours treatment, luciferase activity
T1 construct: expressed in transfected cells; host or cells: HEK293
T1 sequence (P62508 1-458): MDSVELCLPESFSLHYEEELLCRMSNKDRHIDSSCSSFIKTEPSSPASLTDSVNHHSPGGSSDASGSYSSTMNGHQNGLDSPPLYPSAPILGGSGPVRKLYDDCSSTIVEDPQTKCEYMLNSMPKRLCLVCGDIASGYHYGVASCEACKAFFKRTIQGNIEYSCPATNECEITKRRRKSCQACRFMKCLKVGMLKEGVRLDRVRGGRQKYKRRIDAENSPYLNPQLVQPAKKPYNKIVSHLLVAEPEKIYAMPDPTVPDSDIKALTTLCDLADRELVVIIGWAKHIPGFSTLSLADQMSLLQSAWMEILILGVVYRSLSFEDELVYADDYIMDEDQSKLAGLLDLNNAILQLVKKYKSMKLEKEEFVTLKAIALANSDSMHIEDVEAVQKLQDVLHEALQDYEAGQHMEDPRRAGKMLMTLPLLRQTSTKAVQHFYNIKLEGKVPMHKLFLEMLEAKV
Method: (§1) HEK293 cells were maintained in Dulbecco's modified Eagles medium (DMEM) supplemented with 10% fetal bovine serum at 37° C. under 5% CO2. […] Cells were transfected with ERRE reporter construct and pcDNA3.1 ERRα or ERRγ. Twenty-four-hours post-transfection, the cells were treated with vehicle or compound (various concentrations) for 24 hours (4 wells per dose). Luciferase activity was measured using the One-Glo Tox luciferase reporter assay system (Promega) and […] were calculated using GraphPad Prism software.

ERRα = target: T2, ERRα (Homo sapiens, UniProt P11474); assay: ERRE luciferase reporter assay in HEK293 cells transfected with pcDNA3.1 ERRα; format: cell-based; design: key to EC50 (ERRα): ***<1 μM; **1-5 μM; *>5 μM; i.a. (inactive); details: 24 hours treatment, luciferase activity
T2 construct: expressed in transfected cells; host or cells: HEK293
T2 sequence (P11474 1-423): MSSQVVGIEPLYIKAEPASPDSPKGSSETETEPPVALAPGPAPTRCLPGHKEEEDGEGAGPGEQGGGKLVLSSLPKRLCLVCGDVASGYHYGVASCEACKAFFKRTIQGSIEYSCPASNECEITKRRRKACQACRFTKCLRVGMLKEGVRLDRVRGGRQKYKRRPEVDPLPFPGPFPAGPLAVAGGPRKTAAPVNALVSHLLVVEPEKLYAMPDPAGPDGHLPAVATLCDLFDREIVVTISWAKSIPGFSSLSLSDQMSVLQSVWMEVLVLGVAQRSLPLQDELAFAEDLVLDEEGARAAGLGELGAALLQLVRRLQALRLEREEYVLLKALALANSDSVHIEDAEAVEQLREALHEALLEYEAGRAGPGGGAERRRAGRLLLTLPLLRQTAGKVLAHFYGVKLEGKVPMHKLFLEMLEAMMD
Method: as §1

Compound	EC50 (ERRγ) (ERRγ)	EC50 (ERRα) (ERRα)	EC50 (ERRγ) [µM]	EC50 (ERRα) [µM]
Oc1cccc(C2CC(c3cc(C(F)(F)F)cc(C(F)(F)F)c3)=NN2)c1 (centres unmarked) [Entry 5, 3-(3-(3,5-bis(trifluoromethyl)phenyl)-4,5-dihydro-1H-pyrazol-5-yl)phenol]	i.a.	i.a.	–	–
Oc1ccccc1C1CC(c2ccncc2)=NN1 (centres unmarked) [Entry 2, 2-(3-(pyridin-4-yl)-4,5-dihydro-1H-pyrazol-5-yl)phenol]	–	i.a.	> 5	–
Oc1cccc(C2CC(c3ccccc3F)=NN2)c1 (centres unmarked) [Entry 90, 3-(3-(2-fluorophenyl)-4,5-dihydro-1H-pyrazol-5-yl)phenol]	–	–	1 to 5	1 to 5
Oc1cccc(C2CC(c3ccc(C(F)(F)F)cc3)=NN2)c1 (centres unmarked) [Entry 74, 3-(3-(4-(trifluoromethyl)phenyl)-4,5-dihydro-1H-pyrazol-5-yl)phenol]	–	–	1 to 5	1 to 5
Oc1ccccc1C1=NNC(c2c[nH]cn2)C1 (centres unmarked) [Entry 109, 2-(5-(1H-imidazol-4-yl)-4,5-dihydro-1H-pyrazol-3-yl)phenol]	i.a.	i.a.	–	–
CC(=O)N1N=C(c2cccc(C)c2)CC1c1ccccc1O (centres unmarked) [Entry 14, 1-(5-(2-Hydroxyphenyl)-3-(m-tolyl)-4,5-dihydro-1H-pyrazol-1-yl)ethan-1-one]	i.a.	i.a.	–	–
Oc1ccc(C2CC(c3cccc(F)c3)=NN2)cc1 (centres unmarked) [Entry 77, 4-(3-(3-fluorophenyl)-4,5-dihydro-1H-pyrazol-5-yl)phenol]	–	–	> 5	> 5
Fc1ccccc1C1=NNC(c2ccc(Cl)c(Cl)c2)C1 (centres unmarked) [Entry 110, 5-(3,4-dichlorophenyl)-3-(2-fluorophenyl)-4,5-dihydro-1H-pyrazole]	i.a.	i.a.	–	–
Oc1ccccc1C1=NNC(c2c(O)cccc2Cl)C1 (centres unmarked) [Entry 69, 3-chloro-2-(3-(2-hydroxyphenyl)-4,5-dihydro-1H-pyrazol-5-yl)phenol]	i.a.	i.a.	–	–
Cc1ccc(C2CC(c3ccc(Br)cc3)=NN2)c(O)c1 (centres unmarked) [Entry 61, 2-(3-(4-bromophenyl)-4,5-dihydro-1H-pyrazol-5-yl)-5-methylphenol]	–	i.a.	> 5	–
Oc1ccc2cc(C3CC(c4ccc(Cl)cc4)=NN3)ccc2c1 (centres unmarked) [Entry 98, 6-(3-(4-chlorophenyl)-4,5-dihydro-1H-pyrazol-5-yl)naphthalen-2-ol]	i.a.	i.a.	–	–
FC(F)(F)c1cc(C2=NNC(c3ccc(Cl)cc3)C2)cc(C(F)(F)F)c1 (centres unmarked) [Entry 68, 3-(3,5-bis(trifluoromethyl)phenyl)-5-(4-chlorophenyl)-4,5-dihydro-1H-pyrazole]	i.a.	i.a.	–	–
Oc1ccc(C2CC(c3ccccc3O)=NN2)cc1 (centres unmarked) [Entry 67, 2-(5-(4-hydroxyphenyl)-4,5-dihydro-1H-pyrazol-3-yl)phenol]	–	i.a.	> 5	–
Cc1ccc(O)c(C2CC(c3ccccc3)=NN2)c1 (centres unmarked) [Entry 39, 4-Methyl-2-(3-phenyl-4,5-dihydro-1H-pyrazol-5-yl)phenol]	–	–	< 1	< 1
Clc1ccccc1C1=NNC(c2ccc3ccccc3c2)C1 (centres unmarked) [Entry 101, 3-(2-chlorophenyl)-5-(naphthalen-2-yl)-4,5-dihydro-1H-pyrazole]	–	–	< 1	< 1
Cc1ccc(O)c(C2CC(c3ccc(Cl)cc3Cl)=NN2)c1 (centres unmarked) [Entry 49, 2-(3-(2,4-Dichlorophenyl)-4,5-dihydro-1H-pyrazol-5-yl)-4-methylphenol]	i.a.	i.a.	–	–
Oc1cccc(C2CC(c3ccc(F)cc3)=NN2)c1 (centres unmarked) [Entry 87, 3-(3-(4-fluorophenyl)-4,5-dihydro-1H-pyrazol-5-yl)phenol]	–	–	> 5	1 to 5
COc1ccc(C2=NNC(c3ccc(C)cc3O)C2)cc1 (centres unmarked) [Entry 59, 2-(3-(4-methoxyphenyl)-4,5-dihydro-1H-pyrazol-5-yl)-5-methylphenol]	–	–	> 5	> 5
Oc1ccccc1C1CC(c2ccc(C(F)(F)F)cc2)=NN1 (centres unmarked) [Entry 40, 2-(3-(4-(Trifluoromethyl)phenyl)-4,5-dihydro-1H-pyrazol-5-yl)phenol]	–	–	1 to 5	< 1

Compound	EC50 (ERRγ) (ERRγ)	EC50 (ERRα) (ERRα)	EC50 (ERRγ) [µM]	EC50 (ERRα) [µM]
Oc1ccc(C2CC(c3cccc(Br)c3)=NN2)cc1 (centres unmarked) [Entry 84, 4-(3-(3-bromophenyl)-4,5-dihydro-1H-pyrazol-5-yl)phenol]	–	–	> 5	> 5
Oc1cccc(C2CC(c3ccccc3O)=NN2)c1 (centres unmarked) [Entry 18, 2-(5-(3-Hydroxyphenyl)-4,5-dihydro-1H-pyrazol-3-yl)phenol]	–	–	1 to 5	1 to 5
Oc1cccc(C2CC(c3ccc(Br)cc3)=NN2)c1 (centres unmarked) [Entry 79, 3-(3-(4-bromophenyl)-4,5-dihydro-1H-pyrazol-5-yl)phenol]	–	–	1 to 5	1 to 5
Oc1ccccc1C1CC(c2cccc(OC(F)(F)F)c2)=NN1 (centres unmarked) [Entry 1, o-[3-(m-Trifluoromethoxy-phenyl)-2-pyrazolin-5-yl]phenol]	i.a.	–	–	> 5
Oc1c(Cl)cccc1C1CC(c2ccc(Br)cc2)=NN1 (centres unmarked) [Entry 45, 2-(3-(4-Bromophenyl)-4,5-dihydro-1H-pyrazol-5-yl)-6-chlorophenol]	–	–	1 to 5	1 to 5
Cc1nc[nH]c1C1CC(c2ccc(Br)cc2)=NN1 (centres unmarked) [Entry 105, 3-(4-bromophenyl)-5-(4-methyl-1H-imidazol-5-yl)-4,5-dihydro-1H-pyrazole]	–	–	> 5	> 5
Cc1cccc(C2=NNC(c3ccccc3O)C2)c1 (centres unmarked) [Entry 23, 2-(3-(m-Tolyl)-4,5-dihydro-1H-pyrazol-5-yl)phenol]	–	–	1 to 5	< 1
Fc1cccc(C2=NNC(c3ccc4ccccc4c3)C2)c1 (centres unmarked) [Entry 88, 3-(3-fluorophenyl)-5-(naphthalen-2-yl)-4,5-dihydro-1H-pyrazole]	–	i.a.	1 to 5	–
Oc1ccccc1C1=NNC(c2ccccc2)C1 (centres unmarked) [Entry 50, 2-(5-Phenyl-4,5-dihydro-1H-pyrazol-3-yl)phenol]	–	–	1 to 5	< 1
Cc1ccccc1C1=NNC(c2ccccc2O)C1 (centres unmarked) [Entry 27, 2-(3-(o-Tolyl)-4,5-dihydro-1H-pyrazol-5-yl)phenol]	i.a.	i.a.	–	–
COc1ccc(C2=NNC(c3ccccc3)C2)c(O)c1 (centres unmarked) [Entry 52, 5-Methoxy-2-(5-phenyl-4,5-dihydro-1H-pyrazol-3-yl)phenol]	–	–	< 1	< 1
Oc1ccccc1C1CC(c2ccc(Br)cc2)=NN1 (centres unmarked) [Entry 24, 2-(3-(4-Bromophenyl)-4,5-dihydro-1H-pyrazol-5-yl)phenol]	–	–	< 1	< 1
FC(F)(F)c1cc(C2=NNC(c3ccc4ccccc4c3)C2)cc(C(F)(F)F)c1 (centres unmarked) [Entry 20, 3-(3,5-bis(trifluoromethyl)phenyl)-5-(naphthalen-2-yl)-4,5-dihydro-1H-pyrazole]	i.a.	i.a.	–	–
COc1ccc(C2=NNC(c3cc(Br)cc(Br)c3O)C2)cc1 (centres unmarked) [Entry 117, 2,4-dibromo-6-(3-(4-methoxyphenyl)-4,5-dihydro-1H-pyrazol-5-yl)phenol]	i.a.	i.a.	–	–
Oc1ccc(C2CC(c3cccc(O)c3)=NN2)cc1 (centres unmarked) [Entry 100, 3-(5-(4-hydroxyphenyl)-4,5-dihydro-1H-pyrazol-3-yl)phenol]	–	–	1 to 5	1 to 5
FC(F)(F)c1ccc(C2=NNC(c3ccc4ccccc4c3)C2)cc1 (centres unmarked) [Entry 72, 5-(naphthalen-2-yl)-3-(4-(trifluoromethyl)phenyl)-4,5-dihydro-1H-pyrazole]	i.a.	i.a.	–	–
Oc1cccc(C2=NNC(c3ccc4cc(O)ccc4c3)C2)c1 (centres unmarked) [Entry 94, 6-(3-(3-hydroxyphenyl)-4,5-dihydro-1H-pyrazol-5-yl)naphthalen-2-ol]	i.a.	–	–	1 to 5
Oc1cccc(C2CC(c3cccc(Br)c3)=NN2)c1 (centres unmarked) [Entry 97, 3-(3-(3-bromophenyl)-4,5-dihydro-1H-pyrazol-5-yl)phenol]	–	–	1 to 5	1 to 5
